The values below come from patent US11691992B2 (Anacor Pharmaceuticals, Inc., priority 2017, dated 2023).

Molecules are shown by their SMILES. Read-outs that look alike come from different tables or passages of the source. A value given as a limit tells only on which side of the number the result lay.

What all share (assay type): cell-based
The test system of experiment [1] is promastigote forms of L. major. Put plainly: Leishmania major promastigote growth inhibition assay (Alamar Blue). Conditions: promastigotes, 44 hours + 4 hours Alamar Blue, read-out: IC50: I Org. promastigote Growth L. major, 2 d. From the text:
Example 108. Leishmania major Promastigote Growth Inhibition Assay
The promastigote assay is a microtiter plate drug sensitivity prescreen assay used to determine antileishmanial activity of candidate drugs against promastigote forms of L. major. (Shadow et al., PLOS Neglected Tropical Diseases, 2009, e311.) Alamar Blue, or resazurin, is a non-fluorescent indicator dye that is converted to bright red-fluorescent resorufin via the activity of mitochondrial reductases. As the activity of mitochondrial reductases is reduced in cells that are dead or dying, and the intensity of the fluorescence is relative to cell number, a test compound that kills or inhibits growth of a particular target cell, such as L. major, will result in a lower production of fluorescent signal. Pre-dosed microtiter drug plates for use in the promastigote drug prescreen assay were produced using sterile 384-well black optical bottom tissue culture plates (Nunc Cat #12-565-344). Candidate drugs were diluted in dimethyl sulfoxide in four 96-well plates to either 10,000 ng/ml or 1,000 ng/ml, and 4.25 μL of diluted drug was subsequently dispensed into each well of a 384-well plate. Duplicate 384 well plates were made at each test concentration (10,000 ng/mL and 1,000 ng/mL) and amphotericin B was used as a batch control. The Tecan EVO Freedom liquid handling system (Tecan US, Inc., Durham, N.C.) was used to produce all drug assay plates and conduct all pipetting operations for this assay. L. major parasites were cultured in Schneider's medium (Lonza Cat #04-351Q) supplemented with 20% heat inactivated FBS (Invitrogen Cat #16140-089). Promastigotes in early log growth phase were harvested from culture, counted, suspended at 1.32×10^5 cells/mF and 5,000 promastigotes were dispensed into each well of the 384 well plate in a volume of 38.8 μL. The 384 well plates were subsequently incubated at 28° C. for 44 hours. 8.4 μF of Alamar Blue (Promega, Cat #G8081) was added to each well, the plates were subsequently incubated at 28° C. and 5% CO2 for 4 hours and then examined for the relative fluorescence units (RFU) per well using the Tecan Genios Plus (Tecan US, Inc., Durham, N.C.) with excitation set at 560 nm and emission set at 590 nm. The relative fluorescence from each well was used to determine the percent growth inhibition of each candidate compound tested. Compounds with 50% or greater inhibition of growth were selected for further analysis to determine IC50 values.
For orientation: Resazurin is reduced to fluorescent resorufin, in cell work by metabolically active cells.

Experiment [2] relates to IL3000 T. congolense (drug sensitive) strain. Description: In vitro Alamar Blue 72 h drug sensitivity assay for T. congolense. The procedure: Example 106. In Vitro Alamar Blue 72 h Drug Sensitivity Assay for T. congolense
Compounds were tested in vitro for chemotherapeutic potency against the IL3000 T. congolense (drug sensitive) strain, using the Alamar Blue assay with several modifications. Test compounds were prepared as 10 mg/mL DMSO stocks for each assay run. Compounds were assayed in at least three separate, independent test runs and an 11-point dilution curve was used to determine the IC50 values. Bloodstream form trypanosomes were supported in HMI media containing 20% bovine serum and were incubated with test compounds for 69 h at 34° C. in a humidified atmosphere containing 5% CO2. Thereafter, 10 μL of Resazurin dye (12.5 mg in 100 mL of phosphate buffered saline, Sigma-Aldrich, Buchs, Switzerland) were added for an additional 3 h. Plates were then read using a fluorescent plate reader (Spectramax, Gemini XS, Bucher Biotec, Basel, Switzerland) using an excitation wavelength of 536 nm and an emission wavelength of 588 nm. Data points were averaged to generate sigmoidal dose-response curves and IC50 values were determined using Softmax Pro 5.2 software.

Experiment [3] has as its system bloodstream forms of T. b. rhodesiense STIB 900. Description: T. brucei rhodesiense STIB 900 growth inhibition assay. Conditions: Trypanosoma brucei, 72 h. From the text: Example 110. T. brucei rhodesiense STIB 900 Growth Inhibition Assay
The parasite strain used in this assay was isolated in 1982 from a human patient in Tanzania and after several mouse passages cloned and adapted to axenic culture conditions, ((a) Baltz, T., D. Baltz, C. Giroud, and J. Crockett. EMBO Journal, 1985, 4:1273-1277. (b) Thuita, J. K., S. M. Karanja, T. Wenzler, R. E. Mdachi, J. M. Ngotho, J. M. Kagira, R. Tidwell, and R. Brun. Acta Tropica 2008, 108:6-10.) Minimum Essential Medium (50 μl) supplemented with 25 mM HEPES, 1 g/l additional glucose, 1% MEM non-essential amino acids (100×), 0.2 mM 2-mercaptoethanol, 1 mM Na-pyruvate and 15% heat inactivated horse serum was added to each well of a 96-well microtiter plate. Serial drug dilutions of seven 3-fold dilution steps covering a range from 90 to 0.123 μg/ml were prepared. Then 10^4 bloodstream forms of T. b. rhodesiense STIB 900 in 50 μl was added to each well and the plate incubated at 37° C. under a 5% CO2 atmosphere for 72 h. 10 μl Alamar Blue (resazurin, 12.5 mg in 100 ml double-distilled water) was then added to each well and incubation continued for a further 2-4 h, (Raz, B., M. Iten, Y. Grether-Buhler, R. Kaminsky, and R. Brun. Acta Trap 1997, 68:139-47.) Then the plates were read with a Spectramax Gemini XS microplate fluorometer (Molecular Devices Cooperation, Sunnyvale, Calif., USA) using an excitation wave length of 536 nm and an emission wave length of 588 nm. Data were analyzed using the microplate reader software Softmax Pro (Molecular Devices Cooperation, Sunnyvale, Calif., USA).

For experiment [4], the system named is L. infantum MHOM/MA(BE)/67 amastigotes in primary peritoneal mouse macrophages. Description: Leishmania infantum intracellular amastigote assay in mouse macrophages. Conditions: Macrophage, 120 h. Here is the method: Example 111. Leishmania infantum Intracellular Amastigote Assay in Mouse Macrophages
L. infantum MHOM/MA(BE)/67 amastigotes were collected from the spleen of an infected donor hamster and used to infect primary peritoneal mouse macrophages. (Kaiser, M., Maes, L., Tadoori, L. P., Spangenberg, T., Ioset, J.-R. J. Biomol. Screen. 2015 20(5), 634-35.) To determine in vitro antileishmanial activity, 3×10^4 macrophages were seeded in each well of a 96-well plate. Culture medium was RPMI-1640 supplemented with L-glutamine (20 mM), 16.5 mM sodium hydrogen carbonate, and 10% fetal calf serum (FCS). After 2 d of outgrowth, 5×10^5 amastigotes/well were added and incubated for 2 h at 37° C. Prediluted samples to be tested were subsequently added, and the plates were further incubated for 5 d at 37° C. and 5% CO2. Total parasite burdens in the well were microscopically assessed after Giemsa staining and expressed as a percentage of the total burden in the blank controls without compound. In treated wells with high amastigote burdens, an overall estimate of the total burden per well was made without discrimination between the number of infected macrophages and the number of amastigotes per infected cell. In treated wells with low burdens, exact counting was performed. The 50% inhibitory concentrations (IC50s) were then generated for each dose response test using GraphPad Prism (GraphPad Software Inc., San Diego, Calif.) using the nonlinear regression (sigmoidal dose-response/variable slope) equation.

[5] abbreviates: Trypanosoma congolense; read-out: inhibition of T. congolense IL-3000 growth at a concentration of 1.0 μM (classes D, E).
The mark [6] stands for this setting: bloodstream forms, Alamar Blue, protocol of Example 110, read-out: IC50: I Org. Growth T. brucei rhodesiense STIB 900, 3 d.
The mark [7] stands for this setting: amastigotes in primary peritoneal mouse macrophages, 5 d, Giemsa staining, read-out: Inhibition of Organism Growth in Leishmania infantum MHOM/MA/BE/67, 5 d.

Take `CCn1nnc(C(=O)Nc2ccc3c(c2)B(O)OC3)c1C` [Example 46, 1-ethyl-N-(1-hydroxy-1,3-dihydrobenzo[c][1,2]oxaborol-6-yl)-5-methyl-1H-1,2,3-triazole-4-carboxamide]: the IC50 in experiment [1] fell in the range of 2510 to 20000 nM.

As for `O=C(Nc1ccc2c(c1)B(O)OC2)c1nnn(CC2CCC2)c1C(F)(F)F` [Example 47, 1-(cyclobutylmethyl)-N-(1-hydroxy-1,3-dihydrobenzo[c][1,2]oxaborol-6-yl)-5-(trifluoromethyl)-1H-1,2,3-triazole-4-carboxamide], the IC50 in experiment [1] was less than 600 nM.

For the compound `COc1cccc(-c2nc(C(=O)Nc3ccc4c(c3)B(O)OC4)nn2C)n1` [Example 75, N-(1-hydroxy-1,3-dihydrobenzo[c][1,2]oxaborol-6-yl)-5-(6-methoxypyridin-2-yl)-1-methyl-1H-1,2,4-triazole-3-carboxamide], the inhibition at 1 µM in experiment [2] (setting [5]) is more than 75%. The IC50 in experiment [3] (setting [6]) was less than 0.1 µM; in experiment [4] (setting [7]), less than 3 µM.

Regarding `Cn1nc(C(=O)Nc2ccc3c(c2)B(O)OC3)nc1-c1ncccc1Cl` [Example 76, 5-(3-Chloropyridin-2-yl)-N-(1-hydroxy-1,3-dihydrobenzo[c][1,2]oxaborol-6-yl)-1-methyl-1H-1,2,4-triazole-3-carboxamide], the inhibition at 1 µM in experiment [2] (setting [5]) is more than 75%. Besides, the values for the IC50 in experiment [3] (setting [6]) and in experiment [4] (setting [7]) were 0.1 to 0.3 µM and 3 to 19.9 µM, respectively.

Take `Cn1nc(C(=O)Nc2ccc3c(c2)B(O)OC3)nc1-c1ccc(Cl)cn1` [Example 77, 5-(5-Chloropyridin-2-yl)-N-(1-hydroxy-1,3-dihydrobenzo[c][1,2]oxaborol-6-yl)-1-methyl-1H-1,2,4-triazole-3-carboxamide]: the inhibition at 1 µM in experiment [2] (setting [5]) is more than 75%. For the same compound, the IC50 in experiment [3] (setting [6]) fell in the range of 0.1 to 0.3 µM; in experiment [4] (setting [7]) it was 3 to 19.9 µM.

With `Cn1nc(-c2cccnc2)nc1C(=O)Nc1ccc2c(c1)B(O)OC2` [Example 78b, N-(1-hydroxy-1,3-dihydrobenzo[c][1,2]oxaborol-6-yl)-1-methyl-3-(pyridin-3-yl)-1H-1,2,4-triazole-5-carboxamide], the inhibition at 1 µM in experiment [2] (Trypanosoma congolense, read-out: inhibition of T. congolense IL-3000 growth at a concentration of 1.0 μM (classes D, E)) is more than 75%. Also, the IC50 in experiment [3] (read-out: IC50: I Org. Growth T. brucei rhodesiense STIB 900, 3 d [uM]) was 0.31 to 10 µM; in experiment [4] (read-out: Inhibition of Organism Growth in Leishmania infantum MHOM/MA/BE/67, 5 d [uM]) it was 20 to 100 µM.

Turning to `Cn1nc(C(=O)Nc2ccc3c(c2)B(O)OC3(C)C)nc1-c1ccccn1` [Example 79], in experiment [2] (setting [5]), the inhibition at 1 µM is more than 75%. In addition, the IC50 in experiment [3] (RHODESIENSE|STIB900, bloodstream forms, Alamar Blue, protocol of Example 110, read-out: IC50: I Org. Growth T. brucei rhodesiense STIB 900, 3 d) lay in the range of 0.31 to 10 µM; in experiment [4] (setting [7]) it was 20 to 100 µM.
